Experimental data as given in US12410141B2, “Anti-cancer spirocyclic-guanidine compounds and uses thereof” (The Johns Hopkins University, priority 2020, dated 2025).
pIC50: −log10 of the molar value. “And” between values parts separate entries of the source, which are not always exact repeats. Equal values may be shown once.

Assays:
OVCAR3 = experiment: Flow cytometry analysis of cell death, OVCAR3; format: cell-based; conditions: 1 μM or 2 μM, 16 hr
Description: (§1) 10^5 cells were re-suspended in binding buffer, 5 μL of Annexin V-PE (Apoptosis Detection Kit I (BD Pharmingen) and 5 μL of 7-AAD were then added into the cells, which were then incubated at room temperature for 15 minutes and analyzed by flow cytometry on a FACSCalibur using CellQuest software (Becton Dickinson).
(§2) Two ovarian cancer cell lines, ES2 and OVCAR3, were treated with 1 μM or 2 μM RA475 and 16 hr later the cells were harvested and stained with 7-AAD and Annexin V. 7-AAD is a DNA dye that can enter dying cells and Annexin V is commonly used to detect apoptotic cells by its ability to bind to phosphatidylserine, an early marker of apoptosis when it is exposed on the outer leaflet of the plasma membrane.

TC1 = experiment: MTT cytotoxicity assay, TC1; format: cell-based; conditions: TC1, cervical, 72 hr, read-out: IC50, cell killing
Description: (§3) All cell lines were obtained from the American Type Culture Collection (ATCC) and cultured in the specified medium supplemented with 10% fetal bovine serum, 100 IU/mL penicillin, and 100 μg/mL streptomycin at 37° C. in a humidified 5% CO2/95% air incubator. To assess drug cytotoxicity cells were seeded at 2,500 cells/well (10,000 cells/well for MM lines and primary cells) in 100 μL medium in 96-well plate. […]
(§4) It was examined whether the RPN13 inhibitor, RA475, was cytotoxic for cancer cell lines using the MTT assay.

PEA1 = experiment: MTT cytotoxicity assay, PEA1; format: cell-based; conditions: PEA1, ovarian, 72 hr, read-out: IC50, cell killing
Description: as §3, §4

ES2 = experiment: Flow cytometry analysis of cell death, ES2; format: cell-based; conditions: 1 μM or 2 μM, 16 hr
Description: as §1, §2

SKOV3 = experiment: MTT cytotoxicity assay, SKOV3; format: cell-based; conditions: SKOV3, ovarian, 72 hr, read-out: IC50, cell killing
Description: as §3, §4

U251MG = experiment: MTT cytotoxicity assay, U251MG; format: cell-based; conditions: glioblastoma multiforme, 72 hr, read-out: IC50, cell killing
Description: as §3, §4

cancer cells = experiment: MTT cytotoxicity assay, cancer cell lines overall; format: cell-based; conditions: all solid cancer-derived cell lines tested (Table 1)
Description: All cell lines were obtained from the American Type Culture Collection (ATCC) and cultured in the specified medium supplemented with 10% fetal bovine serum, 100 IU/mL penicillin, and 100 μg/mL streptomycin at 37° C. in a humidified 5% CO2/95% air incubator. To assess drug cytotoxicity cells were seeded at 2,500 cells/well (10,000 cells/well for MM lines and primary cells) in 100 μL medium in 96-well plate. The cells were treated with compounds for 48 h, and cells were incubated according to the manufacturer's protocol with the Thiazolyl Blue Tetrazolium Bromide (Sigma, M2128) and A570 measured using a Benchmark Plus microplate spectrophotometer (BIO-RAD).
as §4

[1] = system: HCC1806 cells stably expressing 4UbFL; experiment: 4UbFL proteasome reporter, HCC1806 cells; format: cell-based; conditions: 4 hr treatment, IVIS imager
Description: Data are presented as IVIS image (FIG. 8A) and bioluminescence units (FIG. 8B).
4T1 and HCC1806 cells were transfected with 4UbFL plasmid using TransIT2020 transfection reagent for a period of 48 hrs and cells were selected using G418 antibiotic from single colonies. Selected cells were seeded in a 24-well plate (50,000/well) and incubated for 18 h at 37° C. in an incubator. Next, cells were treated with compounds for the period of 4 hr and Luciferin was added (50 uL each well, 7.8 mg/mL) and imaged through an IVIS200 instrument and plotted as a bioluminescent value or fold increase to DMSO control.

[2] = format: in vitro ADME, murine and human
Description: Human and mouse liver microsomes and NADPH regenerating system solutions were purchased from Corning Life Sciences (Tewsbury, MA). Human and mouse K2EDTA was purchased from BioIVT (Westbury, NY). Metabolic studies in liver microsomes (0.125 mg/mL) were conducted in 1× phosphate buffered saline (pH 7.4), NADPH-generating system, and 10 μM of RA475 in a final volume of 250 μl. An incubation mixture with and without NADPH-generating system as well as a neat solution without microsomes and NADPH-generating system were prepared. RA475 was added at the same concentration level into human and mouse EDTA plasma. All reactions were initiated with the addition of RA475. Incubations were performed in glass tubes maintained at 37° C. in a shaker bath. At 0, 30, and 60 minutes, 10 μL aliquots were sampled from the reaction mixture and 0.5 mL of acetonitrile containing internal standard (Up284) was added to each samples. Samples were vortex-mixed and underwent centrifugation for 5 min at 1430×g. […] The column effluent was monitored using an AB Sciex 5500 triple quadrupole mass spectrometer. […] Results were assessed qualitatively comparing the average area ratio of RA475 at 0 hr to area ratio at 30 and 60 minutes for both mouse and human liver microsomes. RA475 was not analyzed for metabolites due to the concentration of RA475 not decreasing. […]

| Structure (SMILES) | 7-AAD and Annexin V double positive cells (OVCAR3) | pIC50 (TC1) | pIC50 (PEA1) | 7-AAD and Annexin V double positive cells (ES2) | pIC50 (SKOV3) | pIC50 (U251MG) | IC50 across cancer cell lines (cancer cells) | bioluminescence of 4UbFL reporter [1] | non-enzymatic degradation [2] | additional degradation by CYP450 activity ([2]; microsomes) |
| --- | --- | --- | --- | --- | --- | --- | --- | --- | --- | --- |
| Cl.Cl.N#Cc1ccc(/C=C2/C(=O)/C(=C/c3ccc(C#N)cc3)C23CCN(C(=N)N)CC3)cc1 [RA475] | dose-dependent induction | 6.66 | 6.39 | dose-dependent induction | 6.52 and 6.72 | 6.22 | Sub micromolar | dose-dependent increase | – | – |
| N#Cc1ccc(/C=C2/C(=O)/C(=C/c3ccc(C#N)cc3)C23CCNCC3)cc1 [Up284, reference compound] | – | – | – | – | – | – | – | – | ~50% | 9-13% |
